# Measurements from patent publication US7223759B2, “Antibacterial 3,5-diaminopiperidine-substituted aromatic and heteroaromatic compounds” (Anadys Pharmaceuticals, Inc., priority 2003, dated 2007).
# Like-named read-outs stand apart in the source and are kept apart here.
# Test system: Escherichia coli (ATCC25922) or Staphylococcus aureus (ATCC25923)
# Test: Antibacterial MIC, microdilution method in Mueller-Hinton medium
# Format: cell-based
# Conditions: Escherichia coli, 18 h, read-out: Potency (MIC)
# How it was run: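 Two-fold serial dilutions from 64 to 0.5 μg/ml, in duplicate, by broth microdilution in Mueller-Hinton medium (NCCLS M7-A5). MIC taken as the lowest concentration preventing visible growth after 18 h at 35° C.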
# [1] = MIC in E. coli or S. aureus, two-fold serial dilutions 64 to 0.5 μg/ml in duplicate, 18 hours of incubation at 35° C.
SMILES,MIC,MIC [1]
"N[C@@H]1C[C@H](N)CN(c2nc(NCCc3ccc(Cl)cc3Cl)nc(N3C[C@H](N)C[C@H](N)C3)n2)C1 [N-[2-(2,4-dichloro-phenyl)-ethyl]-4,6-Bis-((3R,5S)-3,5-diamino-piperidin-1-yl)-[1,3,5]triazine-2-amine]",> 64 µg/mL,
"COc1ccc(NC(=O)c2ccc(O)cc2O)c(Nc2nc(N3C[C@H](N)C[C@H](N)C3)nc(N3C[C@H](N)C[C@H](N)C3)n2)c1 [N-[2-(2,4-dihydroxy-benzoylamino)-5-methoxy-phenyl]-4,6-Bis-((3R,5S)-3,5-diamino-piperidin-1-yl)-[1,3,5]triazine-2-amine]",> 64 µg/mL,
"COc1ccc(NC(=O)c2cccc(C)c2O)c(Nc2nc(N3C[C@H](N)C[C@H](N)C3)nc(N3C[C@H](N)C[C@H](N)C3)n2)c1 [N-[2-(2-hydroxy-3-methyl-benzoylamino)-5-methoxy-phenyl]-4,6-Bis-((3R,5S)-3,5-diamino-piperidin-1-yl)-[1,3,5]triazine-2-amine]",> 64 µg/mL,
"COc1ccc(Nc2nc(N3C[C@H](N)C[C@H](N)C3)nc(N3C[C@H](N)C[C@H](N)C3)n2)c(NC(=O)c2cccc([N+](=O)[O-])c2O)c1 [N-[2-(2-hydroxy-3-nitro-benzoylamino)-4-methoxy-phenyl]-4,6-Bis-((3R,5S)-3,5-diamino-piperidin-1-yl)-[1,3,5]triazine-2-amine]",> 64 µg/mL,
"COc1ccc(NC(=O)c2ccc(C)cc2O)c(Nc2nc(N3C[C@H](N)C[C@H](N)C3)nc(N3C[C@H](N)C[C@H](N)C3)n2)c1 [N-[2-(2-hydroxy-4-methyl-benzoylamino)-5-methoxy-phenyl]-4,6-Bis-((3R,5S)-3,5-diamino-piperidin-1-yl)-[1,3,5]triazine-2-amine]",> 64 µg/mL,
"N[C@@H]1C[C@H](N)CN(c2nc(NCCNc3ccc([N+](=O)[O-])cn3)nc(N3C[C@H](N)C[C@H](N)C3)n2)C1 [N-[2-(5-nitro-pyridin-2-ylamino)-ethyl]-4,6-Bis-((3R,5S)-3,5-diamino-piperidin-1-yl)-[1,3,5]triazine-2-amine]",> 64 µg/mL,
"Cc1ccc(S(=O)(=O)Nc2ccccc2Nc2nc(N3C[C@H](N)C[C@H](N)C3)nc(N3C[C@H](N)C[C@H](N)C3)n2)cc1 [N-[2-(toluene-4-sulfonylamino)-phenyl]-4,6-Bis-((3R,5S)-3,5-diamino-piperidin-1-yl)-[1,3,5]triazine-2-amine]",> 64 µg/mL,
"N#CCCNS(=O)(=O)c1ccc(Cl)c(Nc2nc(N3C[C@H](N)C[C@H](N)C3)nc(N3C[C@H](N)C[C@H](N)C3)n2)c1 [N-[2-chloro-5-(2-cyano-ethylsulfamoyl)-phenyl]-4,6-Bis-((3R,5S)-3,5-diamino-piperidin-1-yl)-[1,3,5]triazine-2-amine]",> 64 µg/mL,
"N[C@@H]1C[C@H](N)CN(c2nc(Nc3ccc(NC(=O)c4cccc([N+](=O)[O-])c4O)cc3O)nc(N3C[C@H](N)C[C@H](N)C3)n2)C1 [N-[2-hydroxy-4-(2-hydroxy-3-nitro-benzoylamino)-phenyl]-4,6-Bis-((3R,5S)-3,5-diamino-piperidin-1-yl)-[1,3,5]triazine-2-amine]",< 64 µg/mL,
"N[C@@H]1C[C@H](N)CN(c2nc(Nc3cc(Cl)c(NC(=O)c4ccc(Cl)cc4O)c(Cl)c3)nc(N3C[C@H](N)C[C@H](N)C3)n2)C1 [N-[3,5-dichloro-4-(4-chloro-2-hydroxy-benzoylamino)-phenyl]-4,6-Bis-((3R,5S)-3,5-diamino-piperidin-1-yl)-[1,3,5]triazine-2-amine]",< 16 µg/mL,
"N[C@@H]1C[C@H](N)CN(c2nc(Nc3cccc(NC(=O)c4cccc(O)c4O)c3)nc(N3C[C@H](N)C[C@H](N)C3)n2)C1 [N-[3-(2,3-dihydroxy-benzoylamino)-phenyl]-4,6-Bis-((3R,5S)-3,5-diamino-piperidin-1-yl)-[1,3,5]triazine-2-amine]",< 16 µg/mL,
"N[C@@H]1C[C@H](N)CN(c2nc(Nc3cccc(NC(=O)c4ccc(O)cc4O)c3)nc(N3C[C@H](N)C[C@H](N)C3)n2)C1 [N-[3-(2,4-dihydroxy-benzoylamino)-phenyl]-4,6-Bis-((3R,5S)-3,5-diamino-piperidin-1-yl)-[1,3,5]triazine-2-amine]",< 16 µg/mL,
"CCn1c(-c2cccc(Nc3nc(N4C[C@H](N)C[C@H](N)C4)nc(N4C[C@H](N)C[C@H](N)C4)n3)c2)cc(=O)n1-c1ccccc1 [N-[3-(2-ethyl-5-oxo-1-phenyl-2,5-dihydro-1H-pyrazol-3-yl)-phenyl]-4,6-Bis-((3R,5S)-3,5-diamino-piperidin-1-yl)-[1,3,5]triazine-2-amine]",> 64 µg/mL,
"Cc1cccc(C(=O)Nc2cccc(Nc3nc(N4C[C@H](N)C[C@H](N)C4)nc(N4C[C@H](N)C[C@H](N)C4)n3)c2)c1O [N-[3-(2-hydroxy-3-methyl-benzoylamino)-phenyl]-4,6-Bis-((3R,5S)-3,5-diamino-piperidin-1-yl)-[1,3,5]triazine-2-amine]",< 16 µg/mL,
"N[C@@H]1C[C@H](N)CN(c2nc(Nc3cccc(NC(=O)c4cccc([N+](=O)[O-])c4O)c3)nc(N3C[C@H](N)C[C@H](N)C3)n2)C1 [N-[3-(2-hydroxy-3-nitro-benzoylamino)-phenyl]-4,6-Bis-((3R,5S)-3,5-diamino-piperidin-1-yl)-[1,3,5]triazine-2-amine]",< 16 µg/mL,
"Cc1ccc(C(=O)Nc2cccc(Nc3nc(N4C[C@H](N)C[C@H](N)C4)nc(N4C[C@H](N)C[C@H](N)C4)n3)c2)c(O)c1 [N-[3-(2-hydroxy-4-methyl-benzoylamino)-phenyl]-4,6-Bis-((3R,5S)-3,5-diamino-piperidin-1-yl)-[1,3,5]triazine-2-amine]",< 64 µg/mL,
"N[C@@H]1C[C@H](N)CN(c2nc(Nc3cccc(NC(=O)c4ccc(Cl)cc4O)c3)nc(N3C[C@H](N)C[C@H](N)C3)n2)C1 [N-[3-(4-chloro-2-hydroxy-benzoylamino)-phenyl]-4,6-Bis-((3R,5S)-3,5-diamino-piperidin-1-yl)-[1,3,5]triazine-2-amine]",< 16 µg/mL,
"N[C@@H]1C[C@H](N)CN(c2nc(Nc3ccc(NC(=O)c4ccc(Cl)cc4O)c(Br)c3)nc(N3C[C@H](N)C[C@H](N)C3)n2)C1 [N-[3-bromo-4-(4-chloro-2-hydroxy-benzoylamino)-phenyl]-4,6-Bis-((3R,5S)-3,5-diamino-piperidin-1-yl)-[1,3,5]triazine-2-amine]",< 16 µg/mL,
"COc1cccc(C(=O)Nc2ccc(Nc3nc(N4C[C@H](N)C[C@H](N)C4)nc(N4C[C@H](N)C[C@H](N)C4)n3)cc2Cl)c1O [N-[3-chloro-4-(2-hydroxy-3-methoxy-benzoylamino)-phenyl]-4,6-Bis-((3R,5S)-3,5-diamino-piperidin-1-yl)-[1,3,5]triazine-2-amine]",< 16 µg/mL,
"Cl.O=C(Nc1ccc(Nc2nc(N3CCCCC3)nc(N3CCCCC3)n2)cc1Cl)c1ccc(F)c(F)c1O [N-[3-chloro-4-(3,4-difluoro-2-hydroxy-benzoylamino)-pheny]-4,6-Bis-((3R,5S)-3,5-diamino-piperidin-1-yl)-[1,3,5]triazine-2-ammine]",,< 16 µg/mL
"Cc1cc(Nc2nc(N3C[C@H](N)C[C@H](N)C3)nc(N3C[C@H](N)C[C@H](N)C3)n2)cc(Cl)c1NC(=O)c1ccc(Cl)cc1O [N-[3-chloro-4-(4-chloro-2-hydroxy-benzoylamino)-5-methyl-phenyl]-4,6-Bis-((3R,5S)-3,5-diamino-piperidin-1-yl)-[1,3,5]triazine-2-amine]",< 16 µg/mL,
"N[C@@H]1C[C@H](N)CN(c2nc(Nc3ccc(NC(=O)c4ccc(Cl)cc4O)c(Cl)c3)nc(N3C[C@H](N)C[C@H](N)C3)n2)C1 [N-[3-chloro-4-(4-chloro-2-hydroxy-benzoylamino)-phenyl]-4,6-Bis-((3R,5S)-3,5-diamino-piperidin-1-yl)-[1,3,5]triazine-2-amine]",< 16 µg/mL,
"N[C@@H]1C[C@H](N)CN(c2nc(Nc3ccc(NC(=O)c4ccc(F)cc4O)c(Cl)c3)nc(N3C[C@H](N)C[C@H](N)C3)n2)C1 [N-[3-chloro-4-(4-fluoro-2-hydroxy-benzoylamino)-phenyl]-4,6-Bis-((3R,5S)-3,5-diamino-piperidin-1-yl)-[1,3,5]triazine-2-amine]",> 64 µg/mL,
"COc1ccc(C(=O)Nc2ccc(Nc3nc(N4C[C@H](N)C[C@H](N)C4)nc(N4C[C@H](N)C[C@H](N)C4)n3)cc2O)c(O)c1OC [N-[3-hydroxy-4-(2-hydroxy-3,4-dimethoxy-benzoylamino)-phenyl]-4,6-Bis-((3R,5S)-3,5-diamino-piperidin-1-yl)-[1,3,5]triazine-2-amine]",< 64 µg/mL,
"CC(C)c1cc(C(=O)Nc2ccc(Nc3nc(N4C[C@H](N)C[C@H](N)C4)nc(N4C[C@H](N)C[C@H](N)C4)n3)cc2O)c(O)c(C(C)C)c1 [N-[3-hydroxy-4-(2-hydroxy-3,5-diisopropyl-benzoylamino)-phenyl]-4,6-Bis-((3R,5S)-3,5-diamino-piperidin-1-yl)-[1,3,5]triazine-2-amine]",< 16 µg/mL,
"COc1cccc(C(=O)Nc2ccc(Nc3nc(N4C[C@H](N)C[C@H](N)C4)nc(N4C[C@H](N)C[C@H](N)C4)n3)cc2O)c1O [N-[3-hydroxy-4-(2-hydroxy-3-methoxy-benzoylamino)-phenyl]-4,6-Bis-((3R,5S)-3,5-diamino-piperidin-1-yl)-[1,3,5]triazine-2-amine]",< 16 µg/mL,
"Cc1cccc(C(=O)Nc2ccc(Nc3nc(N4C[C@H](N)C[C@H](N)C4)nc(N4C[C@H](N)C[C@H](N)C4)n3)cc2O)c1O [N-[3-hydroxy-4-(2-hydroxy-3-methyl-benzoylamino)-phenyl]-4,6-Bis-((3R,5S)-3,5-diamino-piperidin-1-yl)-[1,3,5]triazine-2-amine]",< 16 µg/mL,
"Cc1ccc(C(=O)Nc2ccc(Nc3nc(N4C[C@H](N)C[C@H](N)C4)nc(N4C[C@H](N)C[C@H](N)C4)n3)cc2O)c(O)c1 [N-[3-hydroxy-4-(2-hydroxy-4-methyl-benzoylamino)-phenyl]-4,6-Bis-((3R,5S)-3,5-diamino-piperidin-1-yl)-[1,3,5]triazine-2-amine]",,< 16 µg/mL
